Reference: US9969768B1 (KING SAUD UNIVERSITY, priority 2017, dated 2018)

Key:
[1] = test system: alloxan-induced diabetic mice; assay: In vivo oral hypoglycemic activity, sub-acute study
Description: Study animals were fasted overnight, and the fasting SG levels calculated at 0 days. The test compounds were administered at a fixed dose of 200 μg/kg body weight orally (homogenized suspension in 0.5% CMC and permissible amounts of Tween 80) for 21 days at a fixed time. After 21 days, treatment was stopped and animals were left for a rest period of 7 days. Animals in the vehicle group were given an equal amount of 0.5% CMC, while those in the control group were maintained as is. During the study, blood samples were removed from all animals at 7, 14, 21 and 28 days, and the percentage change in SG was calculated. The data obtained were analyzed by one-way ANOVA followed by the Dunnett test. The results were expressed as mean±standard error of mean (SEM) for each group, while p<0.01 or p<0.05 was considered to be statistically significant. The percentage changes in blood glucose levels after oral administration, at 200 μg/kg body weight, were evaluated, and are reported in Table 5.

[2] = test system: alloxan-induced diabetic mice; assay: In vivo oral hypoglycemic activity, acute study; conditions: for % Change in SG: diabetic mice
Description: The percentage change in blood glucose levels in diabetic mice after oral administration of the test compounds, at a concentration of 200 μg/kg body weight, were determined at 2, 4, 6, and 24 hours.
The synthesized compounds were screened for hypoglycemic activity in vivo using the alloxan-induced diabetic mice model. For the acute study, animals were fasted overnight and the fasting blood serum glucose (SG) level was determined at 0 hours. Then the compounds were administered at a fixed dose of 200 μg/kg body weight orally (homogenized suspension in 0.5% carboxymethyl cellulose (CMC) with Tween 80). Animals in the vehicle group were given an equal amount of 0.5% CMC, while those in the control group were maintained as is. Blood samples were removed from all animals at 2, 4, 6 and 24 hours and percentage change in SG was calculated. See, Dunn, J. S., Letchie, N. G., “Experimental alloxan diabetes in the rat,” The Lancet 242(6265): 384-387 (1943); and Mourao R. H., Silva T. G., et al., “Synthesis and Biological Activity of Novel Acridinylidene and Benzylidene thiazolidinediones,” Eur. J. Med. Chem., 40: 1129-1133 (2005).

[3] = target: T1, DPP-IV (Homo sapiens, UniProt P27487); assay: DPP-IV inhibition activity (fluorescence); assay type: biochemical; conditions: mean ± S.E.M., n = 6
T1 construct: purchased Sigma
T1 sequence (P27487 whole entry, species assumed): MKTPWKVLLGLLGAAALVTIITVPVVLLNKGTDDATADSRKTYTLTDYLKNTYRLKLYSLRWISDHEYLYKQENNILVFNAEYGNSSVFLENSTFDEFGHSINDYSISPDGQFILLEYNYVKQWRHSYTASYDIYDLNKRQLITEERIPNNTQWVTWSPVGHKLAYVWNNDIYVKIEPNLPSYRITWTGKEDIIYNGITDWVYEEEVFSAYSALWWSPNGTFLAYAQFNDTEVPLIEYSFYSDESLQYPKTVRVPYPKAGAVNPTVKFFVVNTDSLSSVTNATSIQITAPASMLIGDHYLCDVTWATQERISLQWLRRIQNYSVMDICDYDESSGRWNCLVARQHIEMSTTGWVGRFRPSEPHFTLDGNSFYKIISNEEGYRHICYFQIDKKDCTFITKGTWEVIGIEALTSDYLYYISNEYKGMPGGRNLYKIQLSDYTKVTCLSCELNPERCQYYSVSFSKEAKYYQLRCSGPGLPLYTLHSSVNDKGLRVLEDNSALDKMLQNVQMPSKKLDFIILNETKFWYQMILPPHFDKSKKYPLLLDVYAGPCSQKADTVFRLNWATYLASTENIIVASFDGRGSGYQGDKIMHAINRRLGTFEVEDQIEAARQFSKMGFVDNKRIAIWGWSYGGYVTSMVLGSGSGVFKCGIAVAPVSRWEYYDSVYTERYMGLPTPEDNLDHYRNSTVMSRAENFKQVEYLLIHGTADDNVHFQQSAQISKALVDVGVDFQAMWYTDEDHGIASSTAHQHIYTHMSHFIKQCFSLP
Description: A […] reaction system containing DPP-IV (Sigma), a test compound, and 25 mmol/L 4-(2-hydroxyethyl)-1-piperazineethanesulfonic acid (HEPES) buffer (containing 140 mmol/L NaCl, 1% Bovine serum albumin (BSA) and 80 mmol/L MgCl2) was pre-incubated at room temperature for 10 minutes. The reaction was initiated by the addition of […], and the reaction mixture was then incubated at room temperature for 25-45 minutes. […] A negative control (no test compound) and a blank control (no enzyme) were run simultaneously. The test compounds were initially assayed in duplicate at a concentration of 10 mg/mL.

[4] = test system: PPAR; assay: PPAR agonist activity, PPRE-Luc dual luciferase reporter in HepG2 cells; assay type: cell-based; conditions: mean ± S.E.M., n = 6
Description: HepG2 cells were cultured in low glucose Dulbecco's Modified Eagle's medium (DMEM) supplemented with 100 U/mL streptomycin and penicillin. One day prior to transfection, the cells were plated in 96-well plates at 1.5×10^4 cells per well. After reaching 70% confluence, plasmid peroxisome proliferator responsive element-luciferase (PPRE-Luc) with firefly luciferase reporter gene and the control plasmid phRL-TK with renilla luciferase reporter gene were transfected into the cells. After 24 hours, the medium was replaced with either fresh medium (negative control) or fresh medium containing a test compound (10 mg/mL) or pioglitazone (positive control). Non-transfected cells were used as blank. After a further 24 hours, the expression of luciferases was measured using the Dual Luciferase Reporter Gene Assay Kit (Promega). The percent activation (T %) was calculated as [(L1sample−L1Blank)/(L1Negative−L1Blank)]/[(L2Sample−L2Blank)/(L2Negative−L2Blank)]×100%, where L1 represents the value for the value for firefly luciferase and L2 the value for Renilla luciferase. Xing-hua Z., Jufang Y., LiFan, W., Dacheng Y., “Synthesis and antidiabetic activity of β-acetamido ketones,” Acta Pharmaceutica Sinica 1(2):100-105 (2011).

[5] = target: α-Glucosidase from Saccharomyces cerevisiae; assay: α-Glucosidase inhibitory activity (chromogenic method); assay type: biochemical; conditions: mean ± S.E.M., n = 6
Description: The α-Glucosidase inhibitory activity of each compound was determined according to the chromogenic method described by Chapdelaine et al with slight modifications. See, Chapdelaine P., Tremblay R. R., Dube, J. Y., “P-Nitrophenol-alpha-D-gluco-pyranoside as substrate for measurement of maltase activity in human semen,” Clin. Chem., 24: 208-211 (1978). α-Glucosidase from Saccharomyces cerevisiae and substrate solution […] (PNPG) were prepared with 0.1 mol L^−1 of Na-phosphate buffer (pH 6.8). The inhibitors were reconstituted in […] phosphate buffer in a 96-well microplate and incubated with […] α-Glucosidase at 37° C. for 15 minutes, and then 30 μL substrate was added. After incubation with substrate for 5 minutes, release of p-nitrophenol was measured at 405 nm by spectrophotometry. Percentage of enzyme inhibition was calculated according to {1−(Asample−Ablank)/Acontrol}×100, where Asample represents absorbance of test samples, Acontrol represents absorbance of solution without sample, and A blank represents absorbance in presence of solution without substrate.

[6] = 7 day, 200 μg/kg body weight orally daily
[7] = 7 days rest period after 21 days of treatment, 200 μg/kg orally
[8] = 14 day, 200 μg/kg body weight orally daily
[9] = 21 day, 200 μg/kg body weight orally daily
[10] = 2 h after 200 μg/kg body weight orally
[11] = 4 h after 200 μg/kg body weight orally
[12] = 6 h after 200 μg/kg body weight orally
[13] = 24 h after 200 μg/kg body weight orally

| Molecule | % Change in SG [1, 6] | % Change in SG [1, 7] | % Change in SG [1, 8] | % Change in SG [1, 9] | % Change in SG [2, 10] | % Change in SG [2, 11] | % Change in SG [2, 12] | % Change in SG [2, 13] | IC50 [3] | IC50 [4] | IC50 [5] | time of maximum activity post-administration ([2]; acute study, 200 μg/kg orally) |
| --- | --- | --- | --- | --- | --- | --- | --- | --- | --- | --- | --- | --- |
| C[C@H]1O[C@H](O[C@H]2[C@H](O)[C@@H](O)[C@@H](O[C@H]3[C@H](O)[C@@H](O)C(O)O[C@@H]3CO)O[C@@H]2CO)[C@H](O)[C@@H](O)[C@@H]1N[C@H]1C=C(CO)[C@@H](O)[C@H](O)[C@H]1O (stereo partly shown) [Acarbose, reference compound] | −18.29% | −27.65% | −24.55% | −31.78% | −29.23% | −27.87% | −20.17% | −22.39% | 176000 nM |  |  |  |
| COC(=O)[C@]12CCC(C)(C)C[C@H]1C1=CC[C@@H]3[C@@]4(C)CCC(=O)C(C)(C)[C@@H]4CC[C@@]3(C)[C@]1(C)CC2 [Compound 1, 3-oxo-oleanolic acid methyl ester] | −59.76% | −81.20% | −68.78% | −84.65% | −69.40% | −71.89% | −79.32% | −73.29% | 91 ± 0.9 nM | 120 ± 4 nM | 1700 ± 30 nM |  |
| CC1(C)CC[C@]2(C(=O)O)CC[C@]3(C)C(=CC[C@@H]4[C@@]5(C)CC[C@H](O)C(C)(C)[C@@H]5CC[C@]43C)[C@@H]2C1 [Oleanolic acid, reference compound] | −10.56% | −30.32% | −20.35% | −37.68% | −40.79% | −48.66% | −52.17% | −51.01% |  | 14900 nM |  |  |
| CCc1ccc(CCOc2ccc(CC3SC(=O)NC3=O)cc2)nc1 (stereo not shown) [Pioglitazone, reference compound] | −11.23% | −43.45% | −18.34% | −50.39% | −32.16% | −22.45% | −12.34% | −13.28% |  |  |  | 2 h |
| methyl-2-{4-pyridylidene}-3-oxo-18β-Olean-12-en-28-oate [Compound 2] | −62.35% | −86.25% | −71.78% | −87.54% | −74.70% | −81.67% | −84.30% | −80.78% |  |  |  |  |
| methyl-2-{(4-pyridyl)-N-morpholinylmethane}-3-oxo-18β-olean-12-en-28-oate [Compound 4] | −67.90% | −86.43% | −74.78% | −90.87% | −78.88% | −85.89% | −90.00% | −88.88% | 4.4 ± 0.5 nM | 7.8 ± 0.5 nM | 87 ± 1 nM |  |
| methyl-2-{N-(morpholino) methane}-3β-hydroxy-3α-phenyl-18β-Olean-12-ene-28-oate [Compound 6] | −61.68% | −85.89% | −70.54% | −86.45% | −73.60% | −80.74% | −82.33% | −77.80% |  |  |  |  |
| methyl-2-{N-(morpholino)methane}-3-oxo-18β-olean-12-ene-28-oate [Compound 5] | −60.89% | −84.29% | −70.53% | −85.45% | −70.60% | −79.01% | −80.43% | −75.41% |  |  |  |  |
| methyl-2-{phenyl-(4-pyridyl)-methane}-3-oxo-18β-olean-12-en-28-oate [Compound 3] | −66.76% | −83.56% | −73.65% | −89.76% | −75.78% | −82.76% | −85.74% | −79.67% |  |  | 123 ± 4 nM |  |
